# Source: patent US20060264460A1 (Wyeth, priority 2005, published 2006)
# Molecular target: T1, human Cot/Tpl2 kinase (Homo sapiens, UniProt P41279)
# T1 construct: human Cot/Tpl2 kinase construct encoding residues 30-398; 6His (N); made in house; host or cells: Sf9 insect cells, baculovirus system (BD Biosciences)
# Assay: Tpl2/Cot kinase assay: GST-MEK1 phosphorylation detected by ELISA (DELFIA Eu)
# Format: biochemical
# Conditions: 0.4 nM Tpl2, 35 nM GST-MEK1, 50 uM ATP, 1 h at 30° C.
# Summary of the method: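 His-tagged human Tpl2 from Sf9 cells, Ni-affinity and size-exclusion purified (monomer). 0.4 nM Tpl2 with 35 nM GST-MEK1, 50 uM ATP, MOPS pH 7.2, 1% DMSO, 1 h at 30° C; EDTA stop. MEK1 Ser217/221 phosphorylation detected by anti-phospho-MEK1 and Eu-labelled secondary ELISA; IC50 fitted.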
# T1 sequence (P41279 30-398): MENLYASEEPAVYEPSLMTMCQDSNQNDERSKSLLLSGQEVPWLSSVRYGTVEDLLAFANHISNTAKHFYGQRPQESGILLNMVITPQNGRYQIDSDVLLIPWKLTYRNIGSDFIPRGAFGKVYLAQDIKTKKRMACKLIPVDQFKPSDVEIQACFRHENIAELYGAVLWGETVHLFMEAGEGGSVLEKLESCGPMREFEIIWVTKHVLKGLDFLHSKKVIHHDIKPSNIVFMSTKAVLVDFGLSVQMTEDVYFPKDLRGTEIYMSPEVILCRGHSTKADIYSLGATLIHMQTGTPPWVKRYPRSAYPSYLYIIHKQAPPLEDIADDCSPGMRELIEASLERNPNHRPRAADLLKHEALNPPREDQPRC
row,Compound,IC50
1,"N#Cc1cnc2ccc(NCc3cccc(C(F)(F)F)c3)cc2c1Nc1ccc(F)c(Cl)c1 [Example 149, 6-(3-(trifluoromethyl)benzylamino)-4-(3-chloro-4-fluorophenylamino)quinoline-3-carbonitrile]",1500 nM
2,"N#Cc1cnc2ccc(NCc3cccc(Oc4ccccc4)c3)cc2c1Nc1ccc(F)c(Cl)c1 [Example 150, 6-(3-phenoxybenzylamino)-4-(3-chloro-4-fluorophenylamino)quinoline-3-carbonitrile]",6400 nM
3,"N#Cc1cnc2ccc(NCc3ccc(O)c(Cl)c3)cc2c1Nc1ccc(F)c(Cl)c1 [Example 151, 6-(3-chloro-4-hydroxybenzylamino)-4-(3-chloro-4-fluorophenylamino)quinoline-3-carbonitrile]",610 nM
4,"N#Cc1cnc2ccc(NCc3cccc(Cl)c3)cc2c1Nc1ccc(F)c(Cl)c1 [Example 152, 6-(3-chlorobenzylamino)-4-(3-chloro-4-fluorophenylamino)quinoline-3-carbonitrile]",1300 nM
5,"N#Cc1cnc2c(Br)cc(NCc3nn[nH]c3-c3ccccc3C(F)(F)F)cc2c1Nc1ccc(F)c(Cl)c1 [Example 153, 8-bromo-4-[(3-chloro-4-fluorophenyl)amino]-6-[({5-[2-(trifluoromethyl)phenyl]-1H-1,2,3-triazol-4-yl}methyl)amino]quinoline-3-carbonitrile]",220 nM
6,"CN(C)Cc1ccc2cc(CNc3ccc4ncc(C#N)c(Nc5ccc(F)c(Cl)c5)c4c3)[nH]c2c1 [Example 154, 4-(3-chloro-4-fluorophenylamino)-6-((6-((dimethylamino)methyl)-1H-indol-2-yl)methylamino)quinoline-3-carbonitrile]",2500 nM
7,"CN(C)C(=O)c1ccc2cc(CNc3ccc4ncc(C#N)c(Nc5ccc(F)c(Cl)c5)c4c3)[nH]c2c1 [Example 155, 2-((4-(3-chloro-4-fluorophenylamino)-3-cyanoquinolin-6-ylamino)methyl)-N,N-dimethyl-1H-indole-6-carboxamide]",1500 nM
8,"CN(C)C(=O)c1ccc2cc(CNc3ccc4ncc(C#N)c(Nc5ccc(F)c(Cl)c5)c4c3)n(C)c2c1 [Example 156, 2-((4-(3-chloro-4-fluorophenylamino)-3-cyanoquinolin-6-ylamino)methyl)-N,N,1-trimethyl-1H-indole-6-carboxamide]",420 nM
9,"N#Cc1cnc2ccc(NCc3cc4ccccc4[nH]3)cc2c1Nc1ccc(F)c(Cl)c1 [Example 157, 6-((1H-indol-2-yl)methylamino)-4-(3-chloro-4-fluorophenylamino)quinoline-3-carbonitrile]",8500 nM
10,"N#Cc1cnc2cc(OCCCN3CCOCC3)c(NCc3cnc[nH]3)cc2c1Nc1ccc(F)c(Cl)c1 [Example 159, 6-((1H-imidazol-5-yl)methylamino)-4-(3-chloro-4-fluorophenylamino)-7-(3-morpholinopropoxy)quinoline-3-carbonitrile]",9200 nM
11,"N#Cc1cnc2cc(N3CCOCC3)c(NCc3cnc[nH]3)cc2c1Nc1ccc(F)c(Cl)c1 [Example 160, 6-((1H-imidazol-5-yl)methylamino)-4-(3-chloro-4-fluorophenylamino)-7-morpholinoquinoline-3-carbonitrile]",> 40000 nM
12,"CN1CCN(c2cc3ncc(C#N)c(Nc4ccc(F)c(Cl)c4)c3cc2NCc2cnc[nH]2)CC1 [Example 161, 6-((1H-imidazol-5-yl)methylamino)-4-(3-chloro-4-fluorophenylamino)-7-(4-methylpiperazin-1-yl)quinoline-3-carbonitrile]",> 40000 nM
13,"CN(C)CCSc1cc2ncc(C#N)c(Nc3ccc(F)c(Cl)c3)c2cc1NCc1cnc[nH]1 [Example 163, 6-((1H-imidazol-5-yl)methylamino)-4-(3-chloro-4-fluorophenylamino)-7-(2-(dimethylamino)ethylthio)quinoline-3-carbonitrile]",150 nM
14,"CN(C)CCN1CCN(c2cc3ncc(C#N)c(Nc4ccc(F)c(Cl)c4)c3cc2NCc2cnc[nH]2)CC1 [Example 164, 6-((1H-imidazol-5-yl)methylamino)-4-(3-chloro-4-fluorophenylamino)-7-(4-(2-(dimethylamino)ethyl)piperazin-1-yl)quinoline-3-carbonitrile]",> 40000 nM
15,"CCOc1cc2ncc(C#N)c(Nc3ccc(F)c(Cl)c3)c2cc1NCc1cnc[nH]1 [Example 165, 6-((1H-imidazol-5-yl)methylamino)-4-(3-chloro-4-fluorophenylamino)-7-ethoxyquinoline-3-carbonitrile]",> 40000 nM
16,"N#Cc1cnc2cc(OCCBr)c(NCc3cnc[nH]3)cc2c1Nc1ccc(F)c(Cl)c1 [Example 166, 6-((1H-imidazol-5-yl)methylamino)-7-(2-bromoethoxy)-4-(3-chloro-4-fluorophenylamino)quinoline-3-carbonitrile]",> 40000 nM
17,"CS(=O)(=O)c1cccc(CNc2ccc3ncc(C#N)c(Nc4ccc(F)c(Cl)c4)c3c2)c1 [Example 167, 6-(3-(methylsulfonyl)benzylamino)-4-(3-chloro-4-fluorophenylamino)quinoline-3-carbonitrile]",28 nM
18,"N#Cc1cnc2ccc(NCc3cccc(S(N)(=O)=O)c3)cc2c1Nc1ccc(F)c(Cl)c1 [Example 168, 3-((4-(3-chloro-4-fluorophenylamino)-3-cyanoquinolin-6-ylamino)methyl)benzenesulfonamide]",150 nM
19,"N#Cc1cnc2ccc(NCc3cnc[nH]3)cc2c1Nc1cccc(Br)c1 [Example 169, 6-((1H-imidazol-5-yl)methylamino)-4-(3-bromophenylamino)quinoline-3-carbonitrile]",21 nM
20,"N#Cc1cnc2c(Br)cc(NCc3nn[nH]c3-c3ccc(F)cc3)cc2c1Nc1ccc(F)c(Cl)c1 [Example 170, 8-bromo-4-[(3-chloro-4-fluorophenyl)amino]-6-({[5-(4-fluorophenyl)-1H-1,2,3-triazol-4-yl]methyl}amino)quinoline-3-carbonitrile]",680 nM
21,"Cn1ccnc1CNc1ccc2ncc(C#N)c(Nc3ccc(F)c(Cl)c3)c2c1 [Example 171, 4-(3-chloro-4-fluorophenylamino)-6-((1-methyl-1H-imidazol-2-yl)methylamino)quinoline-3-carbonitrile]",14 nM
22,"C[C@@H](Nc1ccc2ncc(C#N)c(Nc3ccc(F)c(Cl)c3)c2c1)c1ccccn1 [Example 172, (R)-4-(3-chloro-4-fluorophenylamino)-6-(1-(pyridin-2-yl)ethylamino)quinoline-3-carbonitrile]",84 nM
23,"C[C@H](Nc1ccc2ncc(C#N)c(Nc3ccc(F)c(Cl)c3)c2c1)c1ccccn1 [Example 173, (S)-4-(3-chloro-4-fluorophenylamino)-6-(1-(pyridin-2-yl)ethylamino)quinoline-3-carbonitrile]",> 40000 nM
24,"CCOC(=O)CNc1ccc2ncc(C#N)c(Nc3ccc(F)c(Cl)c3)c2c1 [Example 174, Ethyl 2-(4-(3-chloro-4-fluorophenylamino)-3-cyanoquinolin-6-ylamino)acetate]",3500 nM
25,"N#Cc1cnc2ccc(NCC(=O)O)cc2c1Nc1ccc(F)c(Cl)c1 [Example 175, 2-(4-(3-chloro-4-fluorophenylamino)-3-cyanoquinolin-6-ylamino)acetic acid]",310 nM
26,"N#Cc1cnc2ccc(NCC(N)=O)cc2c1Nc1ccc(F)c(Cl)c1 [Example 176, 2-(4-(3-chloro-4-fluorophenylamino)-3-cyanoquinolin-6-ylamino)acetamide]",4300 nM
